From patent US8598163B2, “Derivatives of [1,3]Oxazin-2-one useful for the treatment of metabolic diseases such as lipid disorders” (Vitae Pharmaceuticals, Inc., priority 2009, dated 2013)

How the values were obtained:
11β-HSD1 [1] = target: T1, 11β-HSD1 (Homo sapiens (Human), UniProt P28845); conditions: comparator compounds; IC50 in Biological Test Example 4 divided by IC50 in Biological Test Example 1
Protocol: The assay began by dispensing 49 μl of microsome solution into 96-well polypropylene plates and adding 1 μl of the test compounds in DMSO, previously diluted in half-log increments (8 points) starting at 1.0 mM. […] The plates were incubated for 120 minutes at rt, and the reaction was quenched with the addition of 100 μl acetonitrile with 20 mM cortisone and 20 mM cortisol. After a ten minute incubation at rt, 100 μl of each well was filtered through a MultiScreen HTS, HV filter plate (Millipore) and diluted with 100 μl of reaction buffer without human plasma.

11β-HSD1 [2] = target: T1, 11β-HSD1; conditions: Biological Test 3, human liver microsomes, HTRF
Protocol: Briefly, compounds were incubated for 1 hour at 37° C. in Tris buffer (20 mM tris, 5 mM EDTA, pH 6.0) containing NADPH (200 μM) and cortisone (80 nM). Cortisol generated in the reaction is then detected with a competitive immunoassay, involving two HTRF conjugates: cortisol linked to XL665 and anti-cortisol antibody labeled with Europium cryptate. The incubation period for detection reaction was typically 2 hours. […] The ratio of the two emission signals was then calculated (Em665*10000/Em615). […] Each assay also contained a calibration curve with cortisol to transform the fluorescent data into cortisol concentrations. Percent inhibition of each compound was determined relative to the carbenoxolone signal.

T1 sequence (P28845 whole entry): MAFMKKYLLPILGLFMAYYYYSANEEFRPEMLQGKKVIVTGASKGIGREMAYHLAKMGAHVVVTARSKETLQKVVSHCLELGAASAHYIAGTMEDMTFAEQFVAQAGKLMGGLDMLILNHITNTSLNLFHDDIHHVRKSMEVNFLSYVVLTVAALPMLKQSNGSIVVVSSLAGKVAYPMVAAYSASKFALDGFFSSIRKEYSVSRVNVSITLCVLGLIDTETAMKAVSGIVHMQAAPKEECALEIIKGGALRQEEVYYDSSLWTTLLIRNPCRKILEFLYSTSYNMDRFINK

SMILES	Shift (11β-HSD1 [1])	IC50 (11β-HSD1 [2]) [nM]
Cc1nc2cc(-c3ccc([C@H](C)N4CC[C@](CC(C)(C)O)(c5ccccc5)OC4=O)cc3)ccn2n1 [Example 7, (S)-6-(2-Hydroxy-2-methyl-propyl)-3-{(5)-1-[4-(2-methyl-[1,2,4]triazolopyridin-7-yl)-phenyl]-ethyl}-6-phenyl-[1,3]oxazinan-2-one]	42.43	31
COc1nc2ccc(-c3ccc([C@H](C)N4CC[C@](CC(C)(C)O)(c5ccccc5)OC4=O)cc3)cn2n1 [Example 9, (S)-6-(2-Hydroxy-2-methyl-propyl)-3-{(S)-1-[4-(2-methoxy-[1,2,4]triazolo[1,5-a]pyridin-6-yl)-phenyl]-ethyl}-6-phenyl-[1,3]oxazinan-2-one]	21.45	54
